In patent US11759462B2, “Spirocyclic compounds as tryptophan hydroxylase inhibitors” (priority 2013, dated 2023):

What follows are molecules tested against T1, Recombinant human TPH1 (MBP tagged) (Homo sapiens, UniProt P17752) (assay: TPH1 in vitro inhibition assay (kinetic fluorescence)). Conditions: TPH1 Range (TPH1 inhibition IC50).
T1 construct: cloning full length human TPH1 cDNA in to a bacterial pMAL-c5E expression vector; made in house; host or cells: E. coli BL21 (DE3)
T1 sequence (P17752 1-444): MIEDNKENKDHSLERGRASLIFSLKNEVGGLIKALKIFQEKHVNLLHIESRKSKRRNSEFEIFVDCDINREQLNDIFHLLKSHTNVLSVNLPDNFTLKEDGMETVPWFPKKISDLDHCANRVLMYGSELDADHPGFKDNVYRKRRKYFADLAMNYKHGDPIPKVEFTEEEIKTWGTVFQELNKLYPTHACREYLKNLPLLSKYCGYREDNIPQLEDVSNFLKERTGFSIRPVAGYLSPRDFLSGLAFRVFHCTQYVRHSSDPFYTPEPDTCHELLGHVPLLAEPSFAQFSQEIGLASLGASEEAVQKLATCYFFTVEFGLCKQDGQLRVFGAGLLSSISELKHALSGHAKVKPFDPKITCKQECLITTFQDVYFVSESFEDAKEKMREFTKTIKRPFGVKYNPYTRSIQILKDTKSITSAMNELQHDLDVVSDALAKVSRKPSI
Format: biochemical
Procedure, shortened: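 Final mix: 15 nM MBP-TPH1, 30 μM Trp, 36 μM 6-methyltetrahydropterin, 25 μM ferrous ammonium sulfate, 50 mM MES pH 7.1, 1% DMSO, room temperature.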

IC50 | Structure (SMILES)
< 50 nM | NC(=O)c1cccc(-c2cc(Cl)ccc2[C@@H](Oc2cc(N3CCC4(CC3)CN[C@H](C(=O)O)C4)nc(N)n2)C(F)(F)F)c1 [Example 34ac, (S)-8-(2-amino-6-((R)-1-(3′-carbamoyl-5-chloro-[1,1′-biphenyl]-2-yl)-2,2,2-trifluoroethoxy)pyrimidin-4-yl)-2,8-diazaspiro[4.5]decane-3-carboxylic acid]
300 to 3000 nM | CS(=O)(=O)c1ccc(-c2cc(Cl)ccc2[C@@H](Oc2cc(N3CCC4(CC3)CN[C@H](C(=O)O)C4)nc(N)n2)C(F)(F)F)cc1 [Example 34ad, (S)-8-(2-amino-6-((R)-1-(5-chloro-4′-(methylsulfonyl)-[1,1′-biphenyl]-2-yl)-2,2,2-trifluoroethoxy)pyrimidin-4-yl)-2,8-diazaspiro[4.5]decane-3-carboxylic acid]
300 to 3000 nM | Nc1nc(O[C@H](c2ccc(Cl)cc2-c2ccc(S(N)(=O)=O)cc2)C(F)(F)F)cc(N2CCC3(CC2)CN[C@H](C(=O)O)C3)n1 [Example 34ae, (S)-8-(2-amino-6-((R)-1-(5-chloro-4′-sulfamoyl-[1,1′-biphenyl]-2-yl)-2,2,2-trifluoroethoxy)pyrimidin-4-yl)-2,8-diazaspiro[4.5]decane-3-carboxylic acid]

Structure (SMILES) | IC50
Nc1nc(O[C@H](c2ccc(Cl)cc2-c2cccc(Cl)c2)C(F)(F)F)cc(N2CCC3(CC2)CN[C@H](C(=O)O)C3)n1 [Example 34a, (S)-8-(2-amino-6-((R)-1-(3′,5-dichloro-[1,1′-biphenyl]-2-yl)-2,2,2-trifluoroethoxy)pyrimidin-4-yl)-2,8-diazaspiro[4.5]decane-3-carboxylic acid] | < 50 nM

Same assay, conditions: read-out: TPH1 Range (TPH1 inhibition IC50)

IC50 | Structure (SMILES)
< 50 nM | Cc1ccn(-c2cc(-c3ccc(C(=O)N(C)C)cc3)ccc2[C@@H](Oc2cc(N3CCC4(CC3)CN[C@H](C(=O)O)C4)nc(C)n2)C(F)(F)F)n1 [Example 29j, (S)-8-(6-((R)-1-(4′-(dimethylcarbamoyl)-3-(3-methyl-1H-pyrazol-1-yl)-[1,1′-biphenyl]-4-yl)-2,2,2-trifluoroethoxy)-2-methylpyrimidin-4-yl)-2,8-diazaspiro[4.5]decane-3-carboxylic acid]
50 to 300 nM | COc1ncccc1-c1ccc([C@@H](Oc2cc(N3CCC4(CC3)CN[C@H](C(=O)O)C4)nc(C)n2)C(F)(F)F)c(-n2ccc(C)n2)c1 [Example 29k, (S)-8-(2-methyl-6-((R)-2,2,2-trifluoro-1-(4-(2-methoxypyridin-3-yl)-2-(3-methyl-1H-pyrazol-1-yl)phenyl)ethoxy)pyrimidin-4-yl)-2,8-diazaspiro[4.5]decane-3-carboxylic acid]
< 50 nM | COc1ccc(-c2ccc([C@@H](Oc3cc(N4CCC5(CC4)CN[C@H](C(=O)O)C5)nc(C)n3)C(F)(F)F)c(-n3ccc(C)n3)c2)cc1F [Example 29l, (S)-8-(2-methyl-6-((R)-2,2,2-trifluoro-1-(3′-fluoro-4′-methoxy-3-(3-methyl-1H-pyrazol-1-yl)-[1,1′-biphenyl]-4-yl)ethoxy)pyrimidin-4-yl)-2,8-diazaspiro[4.5]decane-3-carboxylic acid]
50 to 300 nM | Cc1ccn(-c2cc(-c3cccc(C(=O)N(C)C)c3)ccc2[C@@H](Oc2cc(N3CCC4(CC3)CN[C@H](C(=O)O)C4)nc(C)n2)C(F)(F)F)n1 [Example 29m, (S)-8-(6-((R)-1-(3′-(dimethylcarbamoyl)-3-(3-methyl-1H-pyrazol-1-yl)-[1,1′-biphenyl]-4-yl)-2,2,2-trifluoroethoxy)-2-methylpyrimidin-4-yl)-2,8-diazaspiro[4.5]decane-3-carboxylic acid]
50 to 300 nM | Cc1cc(C)c(-c2ccc([C@@H](Oc3cc(N4CCC5(CC4)CN[C@H](C(=O)O)C5)nc(C)n3)C(F)(F)F)c(-n3ccc(C)n3)c2)c(C)c1 [Example 29n, (S)-8-(2-methyl-6-((R)-2,2,2-trifluoro-1-(2′,4′,6′-trimethyl-3-(3-methyl-1H-pyrazol-1-yl)-[1,1′-biphenyl]-4-yl)ethoxy)pyrimidin-4-yl)-2,8-diazaspiro[4.5]decane-3-carboxylic acid]
< 50 nM | Cc1ccn(-c2cc(-c3ccc(OC(C)C)cc3)ccc2[C@@H](Oc2cc(N3CCC4(CC3)CN[C@H](C(=O)O)C4)nc(C)n2)C(F)(F)F)n1 [Example 29o, (S)-8-(2-methyl-6-((R)-2,2,2-trifluoro-1-(4′-isopropoxy-3-(3-methyl-1H-pyrazol-1-yl)-[1,1′-biphenyl]-4-yl)ethoxy)pyrimidin-4-yl)-2,8-diazaspiro[4.5]decane-3-carboxylic acid]
< 50 nM | COc1ccccc1-c1ccc([C@@H](Oc2cc(N3CCC4(CC3)CN[C@H](C(=O)O)C4)nc(C)n2)C(F)(F)F)c(-n2ccc(C)n2)c1 [Example 29p, (S)-8-(2-methyl-6-((R)-2,2,2-trifluoro-1-(2′-methoxy-3-(3-methyl-1H-pyrazol-1-yl)-[1,1′-biphenyl]-4-yl)ethoxy)pyrimidin-4-yl)-2,8-diazaspiro[4.5]decane-3-carboxylic acid]
< 50 nM | COC(=O)c1ccc(-c2ccc([C@@H](Oc3cc(N4CCC5(CC4)CN[C@H](C(=O)O)C5)nc(C)n3)C(F)(F)F)c(-n3ccc(C)n3)c2)cc1OC [Example 29q, (S)-8-(2-methyl-6-((R)-2,2,2-trifluoro-1-(3′-methoxy-4′-(methoxycarbonyl)-3-(3-methyl-1H-pyrazol-1-yl)-[1,1′-biphenyl]-4-yl)ethoxy)pyrimidin-4-yl)-2,8-diazaspiro[4.5]decane-3-carboxylic acid]
< 50 nM | Cc1ccn(-c2cc(-c3ccc(C(C)(C)C)cc3)ccc2[C@@H](Oc2cc(N3CCC4(CC3)CN[C@H](C(=O)O)C4)nc(C)n2)C(F)(F)F)n1 [Example 29r, (S)-8-(6-((R)-1-(4′-(tert-butyl)-3-(3-methyl-1H-pyrazol-1-yl)-[1,1′-biphenyl]-4-yl)-2,2,2-trifluoroethoxy)-2-methylpyrimidin-4-yl)-2,8-diazaspiro[4.5]decane-3-carboxylic acid]
< 50 nM | CCOc1ccc(-c2ccc([C@@H](Oc3cc(N4CCC5(CC4)CN[C@H](C(=O)O)C5)nc(C)n3)C(F)(F)F)c(-n3ccc(C)n3)c2)cc1 [Example 29s, (S)-8-(6-((R)-1-(4′-ethoxy-3-(3-methyl-1H-pyrazol-1-yl)-[1,1′-biphenyl]-4-yl)-2,2,2-trifluoroethoxy)-2-methylpyrimidin-4-yl)-2,8-diazaspiro[4.5]decane-3-carboxylic acid]
50 to 300 nM | Cc1ccn(-c2cc(-c3ccc(OC(F)(F)F)cc3)ccc2[C@@H](Oc2cc(N3CCC4(CC3)CN[C@H](C(=O)O)C4)nc(C)n2)C(F)(F)F)n1 [Example 29t, (S)-8-(2-methyl-6-((R)-2,2,2-trifluoro-1-(3-(3-methyl-1H-pyrazol-1-yl)-4′-(trifluoromethoxy)-[1,1′-biphenyl]-4-yl)ethoxy)pyrimidin-4-yl)-2,8-diazaspiro[4.5]decane-3-carboxylic acid]
50 to 300 nM | COC(=O)c1cccc(-c2ccc([C@@H](Oc3cc(N4CCC5(CC4)CN[C@H](C(=O)O)C5)nc(C)n3)C(F)(F)F)c(-n3ccc(C)n3)c2)c1 [Example 29u, (S)-8-(2-methyl-6-((R)-2,2,2-trifluoro-1-(3′-(methoxycarbonyl)-3-(3-methyl-1H-pyrazol-1-yl)-[1,1′-biphenyl]-4-yl)ethoxy)pyrimidin-4-yl)-2,8-diazaspiro[4.5]decane-3-carboxylic acid]
50 to 300 nM | Nc1nc(O[C@H](c2ccc(Cl)cc2N2CCCC2=O)C(F)(F)F)cc(N2CCC3(CC2)CN[C@H](C(=O)O)C3)n1 [Example 33, (S)-8-(2-amino-6-((R)-1-(4-chloro-2-(2-oxopyrrolidin-1-yl)phenyl)-2,2,2-trifluoroethoxy)pyrimidin-4-yl)-2,8-diazaspiro[4.5]decane-3-carboxylic acid]
< 50 nM | C=CC(=O)NCc1cccc(-c2cc(Cl)ccc2[C@@H](Oc2cc(N3CCC4(CC3)CN[C@H](C(=O)O)C4)nc(N)n2)C(F)(F)F)c1 [Example 34aa, (S)-8-(6-((R)-1-(3′-(acrylamidomethyl)-5-chloro-[1,1′-biphenyl]-2-yl)-2,2,2-trifluoroethoxy)-2-aminopyrimidin-4-yl)-2,8-diazaspiro[4.5]decane-3-carboxylic acid]
300 to 3000 nM | Nc1nc(O[C@H](c2ccc(Cl)cc2-c2cccc(C(=O)O)c2)C(F)(F)F)cc(N2CCC3(CC2)CN[C@H](C(=O)O)C3)n1 [Example 34ab, (S)-8-(2-amino-6-((R)-1-(3′-carboxy-5-chloro-[1,1′-biphenyl]-2-yl)-2,2,2-trifluoroethoxy)pyrimidin-4-yl)-2,8-diazaspiro[4.5]decane-3-carboxylic acid]
< 50 nM | Nc1nc(O[C@H](c2ccc(Cl)cc2-c2ccc(Cl)c(F)c2)C(F)(F)F)cc(N2CCC3(CC2)CN[C@H](C(=O)O)C3)n1 [Example 34af, (S)-8-(2-amino-6-((R)-1-(4′,5-dichloro-3′-fluoro-[1,1′-biphenyl]-2-yl)-2,2,2-trifluoroethoxy)pyrimidin-4-yl)-2,8-diazaspiro[4.5]decane-3-carboxylic acid]
< 50 nM | CC(C)Oc1cccc(-c2cc(Cl)ccc2[C@@H](Oc2cc(N3CCC4(CC3)CN[C@H](C(=O)O)C4)nc(N)n2)C(F)(F)F)c1 [Example 34ag, (S)-8-(2-amino-6-((R)-1-(5-chloro-3′-isopropoxy-[1,1′-biphenyl]-2-yl)-2,2,2-trifluoroethoxy)pyrimidin-4-yl)-2,8-diazaspiro[4.5]decane-3-carboxylic acid]
